Measured values from PMC5522996, “Big conductance calcium‐activated potassium channel openers control spasticity without sedation” (British Journal of Pharmacology, 2017).

Legend:
[1] = Pharmacokinetics in rats; type: in vivo, rat
Procedure: (§1) The stability of compounds when subjected to hepatic and plasma degradation was assessed in vitro by Inpharmatica, Cambridge, UK. Compounds (1 μM) were incubated with either pooled mouse liver microsomes (0.1 mg protein mL^−1) or pooled mouse plasma at 37°C for 0, 5, 10, 20 and 40 min before termination with acetonitrile containing warfarin as an analytical internal standard. Samples were centrifuged, and the resultant supernatant analysed for parent compound. The mass responses at baseline were taken as the 100% reference values against which the disappearance of the compound was measured. The natural log of the % remaining values was used to generate linear plots of disappearance of the compounds. Half‐life values were calculated from the slope of these plots. Hepatocyte metabolism was assessed by Cyprotex, Macclesfield, and 10 μM VSN16R was incubated with primary mouse, rat, monkey (Macaque) and human hepatocytes for 1 h, and the presence of metabolites was assessed using liquid […] mass spectroscopy. The stability of VSN16R was assessed in vivo by Inpharmatica, Cyprotex and Charles Rivers, Cambridge. Blood (plasma) samples were obtained prior to and 5 min to 24 h after drug administration of 2–5 mg·kg^−1 i.v. or 5 mg·kg^−1 p.o. VSN16R into outbred mice and rats (n = 3 per time point). In addition, plasma, brain and spinal cord samples were obtained from ABH with spastic EAE. Immediately after blood collection, the brain and spinal cord were removed and then stored at −20°C prior to assay. Tissue samples were weighed, homogenized and centrifuged, and the lysates generated. Brain lysates and plasma were assayed by LC–MS methods by Inpharmatica/Charles Rivers, Cambridge, UK. This was also performed using a Waters Xevo TQ or API4000, AB Sciex mass spectrometer using spiked samples as standards. PK Solutions Software (Summit Research Services, Montrose, CO, USA), AB Sciex Analyst software combined with Thermo Fisher Scientific Watson LIMS processing and reporting software or WinNonLin pharmacokinetic or PK solutions 2.0 software (Summit Research Services, Montrose CO, USA) were used to produce PK parameters. Data are expressed as mean ± SEM. The detection limit of VSN16R was 2 ng·mL^−1 in plasma and brain and 14 ng·mL^−1 in spinal cords. The detection limit of VSN22R was 2 ng·mL^−1 in plasma and 0.1 ng·mL^−1 for VSN44R in plasma. Pharmacokinetics in toxicological samples in rats (n = 6 per group), dogs (n = 6 per group) and humans (n = 6 per group) were performed by Charles Rivers (Edinburgh, UK).

[2] = biological target: T1, CCKA (Homo sapiens, UniProt P32238); experiment: Receptor binding profile of VSN16R; conditions: 10µM VSN16R
T1 construct: purchased Cerep; Chantest; DiscoveRx; Multispan; MDS Pharma Services

[3] = tested on: Na+ channel (site 2); experiment: Receptor binding profile of VSN16R; design: species or system human; conditions: 10µM VSN16R
[4] = biological target: T2, CYP450 2C9 (Homo sapiens, UniProt P11712); experiment: CYP450 inhibition of substrate binding; type: in vitro ADME; conditions: read-out: IC50 Inhibition of substrate binding, VSN16R
T2 construct: host or cells: BTI NN-5B1-4 or Sf9 insect cells
Source text: (§2) Inhibition of binding of either 3-cyano-7-ethoxycoumarin, dibenzylfluorescein or 7-benzyoxy-4-
(§3) (trifluoromethyl) coumarin in human enzyme transfected BTI NN-5B1-4 cells or Sf9 insect cells or
(§4) inhibition of dextromethorphan substrate to CYP450 2D6 in liver microsomes.

[5] = tested on: mice; experiment: Visible sedation, behaviour and tolerability in mice
[6] = biological target: T3, CYP450 2E1 (Homo sapiens, UniProt P05181); experiment: CYP450 inhibition of substrate binding; type: in vitro ADME; conditions: read-out: IC50 Inhibition of substrate binding, VSN16R
T3 construct: host or cells: BTI NN-5B1-4 or Sf9 insect cells
Source text: as §2, §3, §4

[7] = biological target: T4, δ2 (Homo sapiens, UniProt P41143); experiment: Receptor binding profile of VSN16R; conditions: 10µM VSN16R
T4 construct: purchased Cerep; Chantest; DiscoveRx; Multispan; MDS Pharma Services

[8] = tested on: GlyR; experiment: Receptor binding profile of VSN16R; design: species or system human; conditions: 10µM VSN16R
[9] = Plasma, brain and spinal cord levels in ABH mice with spastic EAE; type: in vivo, mouse
Procedure: as §1

[10] = tested on: GABAB; experiment: Receptor binding profile of VSN16R; design: species or system human; conditions: 10µM VSN16R
[11] = tested on: healthy volunteers; experiment: Phase I safety study, adverse events; type: in vivo, human
[12] = biological target: T5, CXCR2 (Homo sapiens, UniProt P25025); experiment: Receptor binding profile of VSN16R; conditions: 10µM VSN16R
T5 construct: purchased Cerep; Chantest; DiscoveRx; Multispan; MDS Pharma Services

[13] = biological target: T6, M3 (Homo sapiens, UniProt P20309); experiment: Receptor binding profile of VSN16R; conditions: 10µM VSN16R
T6 construct: purchased Cerep; Chantest; DiscoveRx; Multispan; MDS Pharma Services

[14] = first 12 h following p.o. dosing of rats
[15] = 1 g·kg^−1 p.o. daily for 5 days

T1 sequence (P32238 whole entry): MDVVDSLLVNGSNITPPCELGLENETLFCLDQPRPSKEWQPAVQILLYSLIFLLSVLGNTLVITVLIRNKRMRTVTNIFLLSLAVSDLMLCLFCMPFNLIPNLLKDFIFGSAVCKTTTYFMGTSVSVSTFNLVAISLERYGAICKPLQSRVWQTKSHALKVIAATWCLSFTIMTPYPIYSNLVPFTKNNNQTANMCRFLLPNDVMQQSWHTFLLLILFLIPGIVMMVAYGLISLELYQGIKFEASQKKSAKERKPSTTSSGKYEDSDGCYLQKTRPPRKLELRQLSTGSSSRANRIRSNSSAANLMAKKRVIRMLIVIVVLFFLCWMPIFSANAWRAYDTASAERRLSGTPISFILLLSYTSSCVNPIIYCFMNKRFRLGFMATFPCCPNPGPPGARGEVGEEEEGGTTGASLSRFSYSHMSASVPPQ
T6 sequence (P20309 whole entry): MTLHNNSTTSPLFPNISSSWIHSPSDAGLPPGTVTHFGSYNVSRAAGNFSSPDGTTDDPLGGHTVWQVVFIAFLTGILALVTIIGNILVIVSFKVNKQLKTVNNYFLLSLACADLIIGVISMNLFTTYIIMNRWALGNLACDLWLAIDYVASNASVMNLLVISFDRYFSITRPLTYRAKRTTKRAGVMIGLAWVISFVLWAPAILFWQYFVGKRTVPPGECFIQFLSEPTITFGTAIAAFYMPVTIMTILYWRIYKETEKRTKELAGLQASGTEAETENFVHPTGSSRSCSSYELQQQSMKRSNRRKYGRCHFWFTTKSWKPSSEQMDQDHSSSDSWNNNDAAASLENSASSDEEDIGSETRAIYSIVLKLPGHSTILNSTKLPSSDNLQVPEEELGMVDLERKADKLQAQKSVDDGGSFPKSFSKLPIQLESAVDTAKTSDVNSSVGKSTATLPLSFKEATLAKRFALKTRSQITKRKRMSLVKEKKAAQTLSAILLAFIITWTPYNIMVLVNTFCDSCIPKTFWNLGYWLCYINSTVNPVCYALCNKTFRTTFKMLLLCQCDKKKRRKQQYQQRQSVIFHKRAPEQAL
T5 sequence (P25025 whole entry): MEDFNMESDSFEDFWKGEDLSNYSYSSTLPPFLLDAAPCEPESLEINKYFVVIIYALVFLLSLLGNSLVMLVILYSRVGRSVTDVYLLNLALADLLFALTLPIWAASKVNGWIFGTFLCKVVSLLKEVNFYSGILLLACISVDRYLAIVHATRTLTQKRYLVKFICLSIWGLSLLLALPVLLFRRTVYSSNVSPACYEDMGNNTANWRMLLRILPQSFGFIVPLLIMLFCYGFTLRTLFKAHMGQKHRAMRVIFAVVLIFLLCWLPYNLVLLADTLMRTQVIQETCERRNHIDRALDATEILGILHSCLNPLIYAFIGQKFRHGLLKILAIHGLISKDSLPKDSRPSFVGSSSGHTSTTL
T4 sequence (P41143 whole entry): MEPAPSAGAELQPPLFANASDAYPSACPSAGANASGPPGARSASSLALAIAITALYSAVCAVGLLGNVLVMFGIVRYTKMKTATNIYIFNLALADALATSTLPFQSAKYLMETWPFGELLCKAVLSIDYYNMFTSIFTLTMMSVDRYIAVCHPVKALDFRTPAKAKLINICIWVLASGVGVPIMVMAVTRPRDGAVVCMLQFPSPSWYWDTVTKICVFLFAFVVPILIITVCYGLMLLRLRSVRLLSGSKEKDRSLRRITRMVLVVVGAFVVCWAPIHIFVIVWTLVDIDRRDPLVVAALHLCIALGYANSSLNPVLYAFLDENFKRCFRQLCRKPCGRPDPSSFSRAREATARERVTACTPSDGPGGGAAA
T3 sequence (P05181 whole entry): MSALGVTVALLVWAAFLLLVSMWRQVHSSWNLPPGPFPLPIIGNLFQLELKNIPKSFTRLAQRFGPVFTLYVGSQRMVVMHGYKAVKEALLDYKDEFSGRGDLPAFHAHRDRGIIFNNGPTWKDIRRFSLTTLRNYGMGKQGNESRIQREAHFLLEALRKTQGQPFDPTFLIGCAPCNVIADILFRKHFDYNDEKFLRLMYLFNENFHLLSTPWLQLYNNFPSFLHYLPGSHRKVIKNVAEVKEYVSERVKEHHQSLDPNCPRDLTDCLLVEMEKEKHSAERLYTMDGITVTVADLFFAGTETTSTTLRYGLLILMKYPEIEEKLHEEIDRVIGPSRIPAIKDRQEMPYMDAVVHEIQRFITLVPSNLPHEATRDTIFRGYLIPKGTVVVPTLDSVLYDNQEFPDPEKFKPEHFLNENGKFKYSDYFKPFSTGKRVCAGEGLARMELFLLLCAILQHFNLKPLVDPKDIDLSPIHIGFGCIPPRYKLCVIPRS
T2 sequence (P11712 whole entry): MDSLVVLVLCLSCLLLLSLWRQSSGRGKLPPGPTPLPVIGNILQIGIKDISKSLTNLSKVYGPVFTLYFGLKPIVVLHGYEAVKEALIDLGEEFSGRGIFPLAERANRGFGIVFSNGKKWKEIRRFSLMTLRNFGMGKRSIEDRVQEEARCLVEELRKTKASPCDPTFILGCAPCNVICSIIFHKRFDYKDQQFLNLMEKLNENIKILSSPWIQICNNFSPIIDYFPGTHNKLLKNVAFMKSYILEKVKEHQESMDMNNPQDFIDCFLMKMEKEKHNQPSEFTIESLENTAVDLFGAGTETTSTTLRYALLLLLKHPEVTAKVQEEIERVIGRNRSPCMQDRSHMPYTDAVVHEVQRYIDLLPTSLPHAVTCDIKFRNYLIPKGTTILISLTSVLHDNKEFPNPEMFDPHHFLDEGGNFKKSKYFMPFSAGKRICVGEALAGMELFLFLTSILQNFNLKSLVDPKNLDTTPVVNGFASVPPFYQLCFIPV

C[C@H](CO)NC(=O)c1cccc(/C=C\CCCC(=O)N(C)C)c1 [VSN16R]
Faecal elimination [1, 14]: approximately 1 % of the dose
Renal excretion [1, 14]: less than 0.5 % of the dose
bioavailability ([1]; in vivo, po, 5 mg·kg^−1 p.o., rat): 40%
half-life ([1]; rat, plasma, po, 5 mg·kg^−1 p.o., rats, read-out: Elimination half‐life): 43 min
Activity [2]: Negligible Activity
Activity [3]: Negligible Activity
IC50 [4]: > 10 µM
Overt behavioural effects or toxicity [5, 15]: failed to show any overt behavioural effects or toxicity
Weight loss [5, 15]: no drug‐induced weight loss
Tolerated dose ([5]; p.o., mice): 1000 mg/kg
Visible evidence of sedation ([5]; up to 30 mg·kg^−1 i.v. in PBS): failed to show any visible evidence of sedation
IC50 [6]: > 10 µM
Activity [7]: Negligible Activity
Activity [8]: Negligible Activity
Plasma level of the named species ([9]; after 5 mg·kg^−1 p.o. VSN16R, ABH mice with spastic EAE): 73.0 ± 6.1 ng/mL
Mice with drug detected in brains ([9]; chronic EAE animals): 4/4
Mice with drug detected in spinal cords ([9]; chronic EAE animals): 2/4
Mice with drug detected in brains ([9]; normal animals): 4/4
Mice with drug detected in spinal cords ([9]; normal animals): 0/4
Activity [10]: Negligible Activity
Vomiting or issues of taste ([11]; encapsulated drug, human studies): no vomiting or issues of taste were reported
Sedation in humans ([11]; in vivo): does not induce sedation
Serious adverse events ([11]; multiple ascending dose b.i.d.): no serious adverse events
Subjects with a possible side effect of the treatment ([11]; multiple ascending dose b.i.d., 3/18 subjects): 16.7%
Subjects reporting adverse events ([11]; multiple ascending dose b.i.d., 6/18 subjects): 33.3%
Serious adverse drug‐related events ([11]; single ascending dose): No serious adverse drug‐related events occurred
Adverse events reported ([11]; single ascending dose 25–800 mg): 14.3%
Subjects with a possible associated effect with treatment ([11]; single ascending dose, 5/42 subjects): 11.9%
Activity [12]: Negligible Activity
Activity [13]: Negligible Activity
